Data: patent US20070281857A1, “FORMIC ACID AS AN HERBICIDE” (MARRONE ORGANIC INNOVATIONS, priority 2006, published 2007)
Where two headings read alike, the source gives them in different places.

Assays:
dicot seeds = settings: charcoal saturated at 1 mL acid/1 g charcoal, applied to soil in flats; FIG. 2
From the text: (§1) Charcoal was applied to soil in flats containing a known number of seeds, either monocot or dicot, and germination was monitored in each of the treatment groups following intervals determined by the rate of germination in controls.

monocot seeds = settings: charcoal saturated at 1 mL acid/1 g charcoal, applied to soil in flats; FIG. 1
From the text: as §1

[1] = test system: Lactuca sativa (lettuce) seed; settings: stepwise dilution series from 25% to 0%
From the text: Numerous natural compounds were screened for their ability to inhibit the germination of dicot seeds. A single seed of Lactuca sativa (lettuce) was placed in each well of a 96-well plate followed by a solution of each compound in a stepwise dilution series from 25% to 0%. Germination was monitored daily.

apple seedlings = test system: apple seedlings
Experimental: In order to estimate the length of time during which the presence of formic acid in the soil would have a negative effect on new, and perhaps desirable, plantings, a residue study was performed. Holes were cut into the bottoms of flats. The flats were then filled with soil and treated with charcoal immersed in either formic acid or water, just as described above. Soil was watered regularly in order to simulate natural growing conditions and soil leaching. Ten apple seedlings were planted in individual flats containing one treatment or the other at intervals of one week and survival was monitored for one week following each planting.

[2] = test system: Poa annua (annual bluegrass); settings: for germination rate (%) annual bluegrass: one week, compared with control
Experimental: (§2) Pots with 3-cm diameter were filled with 60 mL of silt clay loam soil passed through a 2-mm sieve, and five (5) seeds of either Taraxacum officinale (dandelion, representing a broadleaved weed) or Poa annua (annual bluegrass, representing a grass weed) were planted on the top. A solid form of the composition containing corn gluten meal granules (>2 mm diameter) soaked in 0%, 10%, 15% or 20% formic acid solution and dried were placed on the top of the soil at rates 0.1, 0.25, 0.5 and 1.0 g/pot. The pots were kept at optimum water content under growth lights with a 12-h light/dark period at room temperature, and the number of germinated seeds was counted after one week.

[3] = test system: Taraxacum officinale (dandelion); settings: for germination rate (%) dandelion: one week, compared with control
Experimental: as §2

[4] = test system: monocotyledonous wheat plants (Triticum aestivum); settings: one day post-treatment
From the text: (§3) In order to determine whether formic acid could be used as a foliar herbicide it was applied as a foliar spray to the leaves of dicotyledonous radish plants (Raphanus sativas) and monocotyledonous wheat plants (Triticum aestivum). Solutions were applied to plants using a small handheld sprayer.
(§4) Formic acid and acetic acid solutions at three concentrations (1%, 3%, 5%) were applied and water was used as a check. A barrier was inserted between the rows of plants on either side of the row being treated to avoid drift of sprays into neighboring rows. Plants were evaluated at 24-hour and 72-hour intervals for the number of surviving plants and a percentage was derived from this number in comparison with the number of plants originally present in the row.

[5] = test system: dicotyledonous radish plants (Raphanus sativas); settings: foliar spray at all concentrations (1%, 3%, 5%); one day post-treatment
From the text: as §3, §4

Lactuca sativa (lettuce) = settings: for germination rate potting mix clay / germination rate soil (silty clay loam) clay / germination rate potting mix corn starch / germination rate soil (silty clay loam) corn starch / germination rate potting mix sand / germination rate soil (silty clay loam) sand: 7 days, relative to untreated control
Experimental: To test different carriers for formic acid, corn starch (powder), clay (granular, >2 mm diameter) and sand (small grain) were saturated with formic acid solutions (1, 3, and 5%) and dried at room temperature. Dry product (7.5 mL) was mixed with 60 mL of either potting mix or soil, and the mixture was placed in a small pot. Five (5) seeds of Lactuca sativa (lettuce) were planted on the top of each pot, and the seeds were covered with sand. The pots were incubated at room temperature under continuous light for 7 days, after which the number of seeds germinated in each pot was recorded and presented as a germination rate relative to the untreated control.

[6] = test system: Seedlings of Lactuca sativa (lettuce)
Experimental: A high-throughput 96-well assay was used to test the efficacy of formic acid as a post-emergence, non-selective herbicide. Seedlings of Lactuca sativa (lettuce) were grown in 96-well plates under continuous light. Formic acid was added on the seedlings at a 5x-dilution series from 20% to 0%, and the minimum concentration needed for killing the seedling was recorded the next day.

[7] = 10% formic acid in corn gluten meal granules >2 mm, 0.1 g/pot
[8] = 10% formic acid in corn gluten meal granules >2 mm, 0.25 g/pot
[9] = 10% formic acid in corn gluten meal granules >2 mm, 0.5 g/pot
[10] = 10% formic acid in corn gluten meal granules >2 mm, 1 g/pot
[11] = 15% formic acid in corn gluten meal granules >2 mm, 0.1 g/pot
[12] = 15% formic acid in corn gluten meal granules >2 mm, 0.25 g/pot
[13] = 15% formic acid in corn gluten meal granules >2 mm, 0.5 g/pot
[14] = 15% formic acid in corn gluten meal granules >2 mm, 1 g/pot
[15] = 20% formic acid in corn gluten meal granules >2 mm, 0.1 g/pot
[16] = 20% formic acid in corn gluten meal granules >2 mm, 0.25 g/pot
[17] = 20% formic acid in corn gluten meal granules >2 mm, 0.5 g/pot
[18] = 20% formic acid in corn gluten meal granules >2 mm, 1 g/pot
[19] = bigger granules (>2 mm) imbedded in 15% formic acid

Structure (SMILES): O=CO [Formic acid]
- effect on the germination of dicot seeds (dicot seeds): profound effect
- effect on the germination of monocot seeds (monocot seeds): profound effect
- threshold value to inhibit germination of seeds [1]: 0.0013%
- survival of planted seedlings (apple seedlings; "By week 1, however, and in all subsequent weeks", identical to water group): 100%
- residual herbicidal effect lasting (apple seedlings; formic acid on charcoal in watered soil): less than one week
- planted seedlings survived (apple seedlings; week 1, flats treated with charcoal immersed in formic acid, water flats 100 percent): 80%
- germination rate (%) annual bluegrass [2, 7]: 100%
- germination rate (%) annual bluegrass [2, 8]: 100%
- germination rate (%) annual bluegrass [2, 9]: 30%
- germination rate (%) annual bluegrass [2, 10]: 100%
- germination rate (%) annual bluegrass [2, 11]: 0%
- germination rate (%) annual bluegrass [2, 12]: 0%
- germination rate (%) annual bluegrass [2, 13]: 0%
- germination rate (%) annual bluegrass [2, 14]: 100%
- germination rate (%) annual bluegrass [2, 15]: 100%
- germination rate (%) annual bluegrass [2, 16]: 100%
- germination rate (%) annual bluegrass [2, 17]: 100%
- germination rate (%) annual bluegrass [2, 18]: 100%
- control of the grass seed germination [2, 19]: not effective
- germination rate (%) dandelion [3, 7]: 60%
- germination rate (%) dandelion [3, 8]: 30%
- germination rate (%) dandelion [3, 9]: 30%
- germination rate (%) dandelion [3, 10]: 0%
- germination rate (%) dandelion [3, 11]: 30%
- germination rate (%) dandelion [3, 12]: 30%
- germination rate (%) dandelion [3, 13]: 30%
- germination rate (%) dandelion [3, 14]: 0%
- germination rate (%) dandelion [3, 15]: 0%
- germination rate (%) dandelion [3, 16]: 0%
- germination rate (%) dandelion [3, 17]: 0%
- germination rate (%) dandelion [3, 18]: 0%
- control of a broadleaved weed [3, 19]: complete control
- wheat foliage killed ([4]; foliar spray 1%): none of the foliage killed
- wheat plants killed ([4]; foliar spray 5%): 10%
- killing of foliage of radish plants [5]: completely killed all the foliage
- germination rate potting mix clay (Lactuca sativa (lettuce); 1% formic acid on clay): 100
- germination rate soil (silty clay loam) clay (Lactuca sativa (lettuce); 1% formic acid on clay): 100
- germination rate potting mix corn starch (Lactuca sativa (lettuce); 1% formic acid on corn starch): 100
- germination rate soil (silty clay loam) corn starch (Lactuca sativa (lettuce); 1% formic acid on corn starch): 100
- germination rate potting mix sand (Lactuca sativa (lettuce); 1% formic acid on sand): 100
- germination rate soil (silty clay loam) sand (Lactuca sativa (lettuce); 1% formic acid on sand): 100
- germination rate potting mix clay (Lactuca sativa (lettuce); 3% formic acid on clay): 80
- germination rate soil (silty clay loam) clay (Lactuca sativa (lettuce); 3% formic acid on clay): 100
- germination rate potting mix corn starch (Lactuca sativa (lettuce); 3% formic acid on corn starch): 100
- germination rate soil (silty clay loam) corn starch (Lactuca sativa (lettuce); 3% formic acid on corn starch): 75
- germination rate potting mix sand (Lactuca sativa (lettuce); 3% formic acid on sand): 80
- germination rate soil (silty clay loam) sand (Lactuca sativa (lettuce); 3% formic acid on sand): 100
- control of germination of lettuce, comparison of tested products (Lactuca sativa (lettuce); 5% formic acid imbedded in clay granules): best control of germination
- germination rate potting mix clay (Lactuca sativa (lettuce); 5% formic acid on clay): 60
- germination rate soil (silty clay loam) clay (Lactuca sativa (lettuce); 5% formic acid on clay): 50
- germination rate potting mix corn starch (Lactuca sativa (lettuce); 5% formic acid on corn starch): 100
- germination rate soil (silty clay loam) corn starch (Lactuca sativa (lettuce); 5% formic acid on corn starch): 100
- germination rate potting mix sand (Lactuca sativa (lettuce); 5% formic acid on sand): 20
- germination rate soil (silty clay loam) sand (Lactuca sativa (lettuce); 5% formic acid on sand): 100
- minimum concentration needed for killing the seedling ([6]; 5x-dilution series from 20% to 0%, recorded the next day): 0.8%
- effect on lettuce seedling ([6]; formic acid 0.16%, next day): not harmful for the plant
